According to US20250214924A1, “NOVEL COMPOUNDS AND USES THEREOF” (ACTIVON CO., LTD., priority 2022, published 2025):

Tests used:
[1] = tested on: H2O2-induced reactive oxygen species generation; experiment: DCF-DA staining, H2O2-induced reactive oxygen species generation (Experimental Example 3); assay type: cell-based; conditions: for Number of fluorescent cells (Cell number): DCF-DA, untreated 15, H2O2 only 255
Method: To investigate the inhibitory effect of the compound prepared in Embodiment 1 on H2O2-induced reactive oxygen species generation, DCF-DA staining was performed, and the results are shown in Table 3, FIG. 4, and FIG. 5 below. In the experiment, […] were seeded at a density of 2×10^5 cells per dish in a 35 pi dish and incubated for 24 hours. Subsequently, the cells were treated with the compound prepared in Embodiment 1 and further incubated for 24 hours. After 10 minutes of loading with 5 mM DCF-DA, the cells were examined under a fluorescence microscope, and the number of DCF-DA fluorescent cells was counted using Image J.

HaCaT cells = experiment: antioxidant effect against H2O2 oxidative toxicity (Experimental Example 2); assay type: cell-based, human; conditions: for Number of fluorescent cells (Cell number): untreated 15, H2O2 only 255
[2] = tested on: human keratinocytes (HaCaT cells); experiment: WST-1 assay, cytotoxicity / skin irritation (Experimental Example 1); assay type: cell-based; conditions: for Cell Viability: 24 hours, HaCaT cells, untreated = 100%
Method: To confirm whether the compound prepared in Embodiment 1 causes toxicity in skin cells and induces skin irritation, a WST-1 assay was conducted, and the results are shown in Table 1 and FIG. 2 below. In the experiment, human keratinocytes (HaCaT cells) were seeded at a density of 1×10^4 cells per well in a 96-well plate with DMEM (Dulbecco's Modified Eagle Medium) containing 10% FBS (Fetal Bovine Serum) and 1% Antibiotic-Antimycotic, and incubated for 24 hours in a constant temperature chamber at 37° C. with 5% CO2. Subsequently, the cells were treated with the compound prepared in Embodiment 1 and incubated for an additional 24 hours.

[3] = various concentrations, compared to positive control group (H2O2 treatment)

| SMILES | Number of fluorescent cells (Cell number) ([1]; H2O2 + substance 10 uM) | Number of fluorescent cells (Cell number) (HaCaT cells; H2O2 1 mM + substance 10 uM) | Cell Viability ([2]; 5 uM) [%] | change in cell viability ([2]; 10 μM treatment) | Cell Viability ([2]; 10 uM) [%] | toxicity to Keratinocyte (HaCaT) cells ([2]; concentrations of 5 and 10 μM) | Number of fluorescent cells (Cell number) ([1]; H2O2 + substance 5 uM) | increase in reactive oxygen species caused by H2O2 treatment [1, 3] | Number of fluorescent cells (Cell number) (HaCaT cells; H2O2 1 mM + substance 5 uM) | increase in reactive oxygen species caused by H2O2 treatment (HaCaT cells; [3]) |
| --- | --- | --- | --- | --- | --- | --- | --- | --- | --- | --- |
| O=C1O[C@H]([C@@H](O)CO)C(O)=C1O [Ascorbic acid, reference compound] | 170 | 170 |  |  |  |  |  |  |  |  |
| O=C(O)/C=C/c1ccc(O)c(O)c1 [Caffeic acid, reference compound] | 250 | 250 |  |  |  |  |  |  |  |  |
| O=C(/C=C/c1ccc(O)c(O)c1)OCc1ccc(OC(=O)/C=C/c2ccc(O)c(O)c2)cc1 [Embodiment 1, 4-(((E)-3-(3,4-dihydroxyphenyl)acryloyl)oxy)benzyl (E)-3-(3,4-dihydroxyphenyl)acrylate] | 42 | 42 | 95.9 | cell viability increased | 118.9 | did not show toxicity | 60 | significantly reduced | 60 | significantly reduced |
